Reference: ChEMBL document CHEMBL1149544, “R-(-)-N-alkyl-11-hydroxy-10-hydroxymethyl- and 10-methyl-aporphines as 5-HT1A receptor ligands” (Bioorg Med Chem Lett, 2007)

Each compound was assayed against D(2) dopamine receptor (Rattus norvegicus, UniProt P61169) (assay: Displacement of [3H]nemonapride from rat dopamine D2 receptor).
Sequence of D(2) dopamine receptor (P61169 whole entry): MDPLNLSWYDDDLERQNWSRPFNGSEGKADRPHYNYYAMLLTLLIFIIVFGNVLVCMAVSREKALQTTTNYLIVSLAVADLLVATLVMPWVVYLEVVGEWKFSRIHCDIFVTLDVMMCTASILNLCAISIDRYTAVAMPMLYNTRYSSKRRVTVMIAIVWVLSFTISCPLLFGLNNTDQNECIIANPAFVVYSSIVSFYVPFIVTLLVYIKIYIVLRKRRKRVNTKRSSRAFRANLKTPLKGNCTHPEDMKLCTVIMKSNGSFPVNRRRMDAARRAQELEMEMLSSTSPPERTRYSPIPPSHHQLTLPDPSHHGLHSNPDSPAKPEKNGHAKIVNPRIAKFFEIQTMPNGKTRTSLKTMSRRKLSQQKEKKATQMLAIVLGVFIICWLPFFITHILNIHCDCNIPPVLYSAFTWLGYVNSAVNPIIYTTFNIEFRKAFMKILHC

Structure (SMILES) | Ki
CN1CCc2cccc3c2[C@H]1Cc1ccc(CO)c(O)c1-3 | 7 µM
COc1cc2c3c(c1)-c1c(ccc(C)c1O)C[C@H]3N(C)CC2 | 3.76 µM
Cc1ccc2c(c1O)-c1cccc3c1[C@@H](C2)N(C)CC3 | 11.5 µM
CCCN1CCc2cc(OC)cc3c2[C@H]1Cc1ccc(C)c(O)c1-3 | 1.35 µM
CCCN1CCc2cccc3c2[C@H]1Cc1ccc(CO)c(O)c1-3 | 6.06 µM

These compounds were tested against D(1A) dopamine receptor (Rattus norvegicus, UniProt P18901) (assay: Displacement of [3H]SCH-23390 from rat dopamine D1 receptor).
Sequence of D(1A) dopamine receptor (P18901 whole entry): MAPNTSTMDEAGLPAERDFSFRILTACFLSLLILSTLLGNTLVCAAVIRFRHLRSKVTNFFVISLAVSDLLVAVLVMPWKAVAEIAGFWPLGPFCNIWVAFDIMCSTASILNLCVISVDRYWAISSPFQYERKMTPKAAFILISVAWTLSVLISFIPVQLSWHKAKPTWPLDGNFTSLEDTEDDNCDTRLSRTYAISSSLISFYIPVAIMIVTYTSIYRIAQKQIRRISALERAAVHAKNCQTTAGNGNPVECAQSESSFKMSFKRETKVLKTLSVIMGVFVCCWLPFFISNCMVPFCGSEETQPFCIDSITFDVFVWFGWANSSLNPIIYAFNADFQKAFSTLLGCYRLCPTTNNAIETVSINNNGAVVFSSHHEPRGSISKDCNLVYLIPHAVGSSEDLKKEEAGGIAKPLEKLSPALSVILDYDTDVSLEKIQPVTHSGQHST

Structure (SMILES) | Ki
CN1CCc2cccc3c2[C@H]1Cc1ccc(CO)c(O)c1-3 | 1.39 µM
COc1cc2c3c(c1)-c1c(ccc(C)c1O)C[C@H]3N(C)CC2 | 1.78 µM
Cc1ccc2c(c1O)-c1cccc3c1[C@@H](C2)N(C)CC3 | 9.65 µM
CCCN1CCc2cc(OC)cc3c2[C@H]1Cc1ccc(C)c(O)c1-3 | 2.79 µM
CCCN1CCc2cccc3c2[C@H]1Cc1ccc(CO)c(O)c1-3 | 1.98 µM

Each compound was assayed against T1, 5-hydroxytryptamine receptor 1A (Rattus norvegicus, UniProt P19327) (assay: Displacement of [3H]8-OH-DPAT from rat 5HT1A receptor).
T1 sequence (P19327 whole entry): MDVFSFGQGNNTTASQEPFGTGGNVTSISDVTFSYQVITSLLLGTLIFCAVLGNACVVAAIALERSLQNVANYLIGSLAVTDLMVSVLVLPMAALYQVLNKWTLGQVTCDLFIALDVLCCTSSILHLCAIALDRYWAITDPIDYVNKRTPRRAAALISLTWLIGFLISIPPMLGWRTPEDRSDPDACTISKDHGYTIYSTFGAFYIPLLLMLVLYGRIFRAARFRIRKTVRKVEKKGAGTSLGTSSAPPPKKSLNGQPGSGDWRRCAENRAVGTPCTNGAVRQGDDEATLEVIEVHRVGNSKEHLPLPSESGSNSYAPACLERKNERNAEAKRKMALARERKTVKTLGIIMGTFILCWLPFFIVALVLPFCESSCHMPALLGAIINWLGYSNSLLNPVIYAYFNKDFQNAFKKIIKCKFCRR

Structure (SMILES) | Ki
CN1CCc2cccc3c2[C@H]1Cc1ccc(CO)c(O)c1-3 | 0.0024 µM
COc1cc2c3c(c1)-c1c(ccc(C)c1O)C[C@H]3N(C)CC2 | 0.0215 µM
Cc1ccc2c(c1O)-c1cccc3c1[C@@H](C2)N(C)CC3 | 0.216 µM
CCCN1CCc2cc(OC)cc3c2[C@H]1Cc1ccc(C)c(O)c1-3 | 0.48 µM
CCCN1CCc2cccc3c2[C@H]1Cc1ccc(CO)c(O)c1-3 | 0.375 µM

These compounds were tested against 5-hydroxytryptamine receptor 2A (Rattus norvegicus, UniProt P14842) (assay: Displacement of [3H]ketanserin from rat 5HT2A receptor).
Sequence of 5-hydroxytryptamine receptor 2A (P14842 whole entry): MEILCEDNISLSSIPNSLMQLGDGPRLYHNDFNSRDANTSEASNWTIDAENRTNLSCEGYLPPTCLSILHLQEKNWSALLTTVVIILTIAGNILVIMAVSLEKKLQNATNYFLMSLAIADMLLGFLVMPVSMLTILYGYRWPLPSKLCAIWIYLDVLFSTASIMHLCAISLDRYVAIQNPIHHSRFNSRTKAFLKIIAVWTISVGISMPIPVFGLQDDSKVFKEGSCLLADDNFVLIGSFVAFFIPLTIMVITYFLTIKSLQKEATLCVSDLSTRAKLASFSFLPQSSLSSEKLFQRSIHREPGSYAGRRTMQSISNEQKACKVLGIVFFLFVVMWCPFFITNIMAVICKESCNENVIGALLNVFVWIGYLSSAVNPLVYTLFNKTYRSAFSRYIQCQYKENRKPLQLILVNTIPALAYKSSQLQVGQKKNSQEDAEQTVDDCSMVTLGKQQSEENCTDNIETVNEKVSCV

Structure (SMILES) | Ki
CN1CCc2cccc3c2[C@H]1Cc1ccc(CO)c(O)c1-3 | 0.137 µM
COc1cc2c3c(c1)-c1c(ccc(C)c1O)C[C@H]3N(C)CC2 | 0.271 µM

Organism: Rattus norvegicus
Test: Selectivity for rat 5HT1A over rat 5HT2A

Structure (SMILES) | Ratio Ki
CN1CCc2cccc3c2[C@H]1Cc1ccc(CO)c(O)c1-3 | 57
COc1cc2c3c(c1)-c1c(ccc(C)c1O)C[C@H]3N(C)CC2 | 108
